Experimental data from PubChem BioAssay (NCI).
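48-hour exposure; five concentrations; linearly interpolated endpoints. At the GI50, growth is halved. TGI is the concentration that stops growth completely.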

Legend:
Test in all cases: NCI tumour cell line growth inhibition, 48 h
KM12 colon = tested on: KM12 colon
786-0 renal = tested on: 786-0 renal
COLO 205 colon = tested on: COLO 205 colon
U251 CNS = tested on: U251 CNS
HCT-15 colon = tested on: HCT-15 colon
UO-31 renal = tested on: UO-31 renal
SN12C renal = tested on: SN12C renal
LOX IMVI melanoma = tested on: LOX IMVI melanoma
MOLT-4 leukemia = tested on: MOLT-4 leukemia
OVCAR-3 ovarian = tested on: OVCAR-3 ovarian

CC/C(=C(/c1ccc(OCCN(C)C)cc1)c1ccc(OC(=O)CCCCCCCCC(=O)c2c(C)[nH]c(/C=C3\N=C(c4ccc[nH]4)C=C3OC)c2C)cc1)c1ccccc1
GI50 (KM12 colon): 5.25 µM
TGI (KM12 colon): > 100 µM
GI50 (786-0 renal): 5.19 µM
TGI (786-0 renal): > 100 µM
GI50 (COLO 205 colon): 8.2 µM
TGI (COLO 205 colon): 78 µM
GI50 (U251 CNS): 4.2 µM
TGI (U251 CNS): > 100 µM
GI50 (HCT-15 colon): 5.12 µM
TGI (HCT-15 colon): 97.8 µM
GI50 (UO-31 renal): 4.45 µM
TGI (UO-31 renal): > 100 µM
GI50 (SN12C renal): 7.55 µM
TGI (SN12C renal): > 100 µM
GI50 (LOX IMVI melanoma): 2360 nM
TGI (LOX IMVI melanoma): 5.93 µM
GI50 (MOLT-4 leukemia): 5.13 µM
TGI (MOLT-4 leukemia): > 100 µM
GI50 (OVCAR-3 ovarian): 10.9 µM
TGI (OVCAR-3 ovarian): > 100 µM

COC(=O)C1=CC(=O)[C@@H]2CCCC[C@H]12
TGI (KM12 colon): > 100 µM
TGI (786-0 renal): > 100 µM
TGI (COLO 205 colon): > 100 µM
TGI (U251 CNS): > 100 µM
TGI (HCT-15 colon): > 100 µM
TGI (UO-31 renal): > 100 µM
TGI (SN12C renal): > 100 µM
TGI (MOLT-4 leukemia): > 100 µM
TGI (OVCAR-3 ovarian): > 100 µM

Cn1c(=O)c(Oc2ccc(F)cc2F)cc2cnc(NCC(C)(C)O)nc21
GI50 (KM12 colon): > 25 µM
TGI (KM12 colon): > 25 µM
GI50 (786-0 renal): > 25 µM
TGI (786-0 renal): > 25 µM
GI50 (COLO 205 colon): > 25 µM
TGI (COLO 205 colon): > 25 µM
GI50 (U251 CNS): > 25 µM
TGI (U251 CNS): > 25 µM
GI50 (HCT-15 colon): > 25 µM
TGI (HCT-15 colon): > 25 µM
GI50 (UO-31 renal): > 25 µM
TGI (UO-31 renal): > 25 µM
GI50 (SN12C renal): > 25 µM
TGI (SN12C renal): > 25 µM
GI50 (LOX IMVI melanoma): > 25000 nM
TGI (LOX IMVI melanoma): > 25 µM
GI50 (MOLT-4 leukemia): > 25 µM
TGI (MOLT-4 leukemia): > 25 µM
GI50 (OVCAR-3 ovarian): > 25 µM
TGI (OVCAR-3 ovarian): > 25 µM

CSC1=Nc2ccccc2N=C(c2ccccc2)C1
TGI (KM12 colon): > 100 µM
TGI (786-0 renal): > 100 µM
TGI (COLO 205 colon): 51.8 µM
TGI (U251 CNS): > 100 µM
TGI (HCT-15 colon): > 100 µM
TGI (UO-31 renal): > 100 µM
TGI (SN12C renal): > 100 µM
TGI (LOX IMVI melanoma): 32.2 µM
TGI (MOLT-4 leukemia): > 100 µM
TGI (OVCAR-3 ovarian): > 100 µM

COc1ccc(-c2cc(=O)c3cc(O)ccc3o2)c(OC)c1OC
TGI (KM12 colon): 87.7 µM
TGI (786-0 renal): > 100 µM
TGI (COLO 205 colon): > 100 µM
TGI (HCT-15 colon): > 100 µM
TGI (SN12C renal): > 100 µM
TGI (LOX IMVI melanoma): 57.1 µM
TGI (OVCAR-3 ovarian): 46.3 µM

COc1ccc2nc3ccccc3c(NCCN(CCCl)CCCl)c2c1
TGI (KM12 colon): 4.37 µM
TGI (786-0 renal): 2.4 µM
TGI (U251 CNS): 2.31 µM
TGI (UO-31 renal): 4.39 µM
TGI (SN12C renal): 4.21 µM
TGI (MOLT-4 leukemia): 0.758 µM
TGI (OVCAR-3 ovarian): 1.08 µM

COC(=O)C1=CCC2c3[nH]c4ccccc4c3CCN2C1 (centres undefined)
TGI (KM12 colon): > 354 µM
TGI (786-0 renal): > 354 µM
TGI (COLO 205 colon): > 354 µM
TGI (U251 CNS): > 354 µM
TGI (HCT-15 colon): > 354 µM
TGI (SN12C renal): > 354 µM
TGI (LOX IMVI melanoma): > 354 µM
TGI (MOLT-4 leukemia): > 354 µM
TGI (OVCAR-3 ovarian): > 354 µM

CCOC(=O)C(=O)C(C#N)c1ccc(Cl)cc1 (centres undefined)
TGI (786-0 renal): > 100 µM
TGI (COLO 205 colon): > 100 µM
TGI (U251 CNS): > 100 µM
TGI (HCT-15 colon): > 100 µM
TGI (UO-31 renal): > 100 µM
TGI (SN12C renal): > 100 µM
TGI (LOX IMVI melanoma): > 100 µM
TGI (MOLT-4 leukemia): > 100 µM
TGI (OVCAR-3 ovarian): > 100 µM

N#Cc1cccc(C2C(=O)c3ccc(C(=O)c4ccc5c(c4)C(=O)N(c4ccc(Oc6ccc(N7C(=O)c8ccc(C(=O)c9ccc%10c(c9)C(=O)N(c9cccc(C#N)c9)C%10=O)cc8C7=O)cc6)cc4)C5=O)cc3C2=O)c1 (centres undefined)
TGI (KM12 colon): > 100 µM
TGI (786-0 renal): > 100 µM
TGI (COLO 205 colon): > 100 µM
TGI (U251 CNS): > 100 µM
TGI (HCT-15 colon): > 100 µM
TGI (UO-31 renal): > 100 µM
TGI (SN12C renal): > 100 µM
TGI (MOLT-4 leukemia): > 100 µM
TGI (OVCAR-3 ovarian): > 100 µM

Clc1ccccc1C1SCc2nc3ccccc3n21 (centres undefined)
TGI (KM12 colon): > 100 µM
TGI (786-0 renal): 88 µM
TGI (COLO 205 colon): > 100 µM
TGI (U251 CNS): 54.8 µM
TGI (HCT-15 colon): > 100 µM
TGI (SN12C renal): 51.8 µM
TGI (LOX IMVI melanoma): 81.8 µM
TGI (MOLT-4 leukemia): > 100 µM
TGI (OVCAR-3 ovarian): 29.5 µM
